From the NIST ThermoML archive (doi:10.1021/acs.jced.6b00957)
± gives the expanded uncertainty stated by the source.

What was measured:
[1] = Crystal; DTA
[2] = Molar enthalpy of transition or fusion; settings: Crystal; DSC

Normal melting temperature [1]: 167.1 ± 4 °C
Molar enthalpy of transition or fusion [2]: 6.05 ± 0.382 kcal/mol
Compound: O=C(O)c1c(O)cccc1O [2,6-dihydroxybenzoic acid]
